Laboratory results: ChEMBL document CHEMBL2375343, “(4-Phenoxyphenyl)tetrazolecarboxamides and related compounds as dual inhibitors of fatty acid amide hydrolase (FAAH) and monoacylglycerol lipase (MAGL)” (Eur J Med Chem, 2013)
Active and inactive are the calls of the source. The rule behind the calls is not given here.

Columns and labels:
[1] = molecular target: T1, Fatty-acid amide hydrolase 1 (Rattus norvegicus, UniProt P97612); assay: Inhibition of FAAH in Sprague-Dawley rat brain microsomes assessed as N-(2-hydroxyethyl)-4-pyren-1-ylbutanamide conversion to 4-pyren-1-ylbutanoic acid preincubated for 10 mins measured after 45 mins by HPLC analysis
T1 sequence (P97612 whole entry): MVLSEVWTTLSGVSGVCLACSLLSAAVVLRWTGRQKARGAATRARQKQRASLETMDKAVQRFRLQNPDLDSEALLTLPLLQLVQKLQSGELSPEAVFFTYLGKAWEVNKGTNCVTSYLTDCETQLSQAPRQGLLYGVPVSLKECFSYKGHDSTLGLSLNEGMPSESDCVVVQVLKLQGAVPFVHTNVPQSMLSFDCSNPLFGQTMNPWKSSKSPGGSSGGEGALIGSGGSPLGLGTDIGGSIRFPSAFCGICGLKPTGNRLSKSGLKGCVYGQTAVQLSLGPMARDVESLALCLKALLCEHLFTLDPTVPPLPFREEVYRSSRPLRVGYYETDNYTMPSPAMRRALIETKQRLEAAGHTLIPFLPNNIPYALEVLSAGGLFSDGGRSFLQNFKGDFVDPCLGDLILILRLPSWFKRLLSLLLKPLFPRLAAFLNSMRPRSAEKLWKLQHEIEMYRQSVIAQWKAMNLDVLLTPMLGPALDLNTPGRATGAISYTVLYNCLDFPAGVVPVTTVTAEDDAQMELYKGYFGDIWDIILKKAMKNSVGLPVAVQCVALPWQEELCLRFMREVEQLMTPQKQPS

Monoglyceride lipase [2] = molecular target: T2, Monoglyceride lipase (Homo sapiens, UniProt Q99685); assay: Inhibition of MAGL (unknown origin)
T2 sequence (Q99685 whole entry): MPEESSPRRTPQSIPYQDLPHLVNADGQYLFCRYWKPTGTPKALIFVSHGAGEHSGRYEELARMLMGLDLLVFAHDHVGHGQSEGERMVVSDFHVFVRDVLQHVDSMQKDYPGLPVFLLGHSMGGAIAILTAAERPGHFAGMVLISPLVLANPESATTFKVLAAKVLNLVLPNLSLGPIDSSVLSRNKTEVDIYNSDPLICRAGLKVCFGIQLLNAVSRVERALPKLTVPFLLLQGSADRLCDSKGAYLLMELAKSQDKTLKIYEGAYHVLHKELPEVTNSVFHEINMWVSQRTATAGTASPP

[3] = molecular target: T3, Fatty-acid amide hydrolase 1 (Homo sapiens, UniProt O00519); assay: Inhibition of FAAH (unknown origin)
T3 sequence (O00519 whole entry): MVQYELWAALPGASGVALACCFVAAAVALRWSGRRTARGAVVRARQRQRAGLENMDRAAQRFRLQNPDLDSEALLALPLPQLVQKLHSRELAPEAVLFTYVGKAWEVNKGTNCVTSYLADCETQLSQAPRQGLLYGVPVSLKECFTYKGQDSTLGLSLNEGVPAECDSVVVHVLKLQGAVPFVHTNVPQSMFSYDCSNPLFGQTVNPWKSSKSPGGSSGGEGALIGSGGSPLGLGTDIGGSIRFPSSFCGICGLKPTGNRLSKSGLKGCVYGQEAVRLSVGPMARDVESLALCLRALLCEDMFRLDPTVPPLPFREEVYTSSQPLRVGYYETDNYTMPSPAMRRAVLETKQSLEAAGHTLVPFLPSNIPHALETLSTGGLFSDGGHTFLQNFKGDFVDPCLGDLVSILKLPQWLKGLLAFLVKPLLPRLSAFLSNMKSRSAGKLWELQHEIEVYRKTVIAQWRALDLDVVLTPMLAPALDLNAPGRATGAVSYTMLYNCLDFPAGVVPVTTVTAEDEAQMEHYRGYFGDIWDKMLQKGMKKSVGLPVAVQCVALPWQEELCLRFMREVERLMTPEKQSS

Monoglyceride lipase [4] = molecular target: T2, Monoglyceride lipase; assay: Inhibition of MAGL (unknown origin) using 4-nitrophenylacetate as substrate
Monoglyceride lipase [5] = molecular target: T2, Monoglyceride lipase; assay: Inhibition of human recombinant MAGL-mediated 1,3-dihydroxypropan-1-yl 4-pyren-1-ylbutanoate conversion to 4-pyren-1-ylbutanoic acid preincubated for 15 mins measured after 45 mins by HPLC analysis
[6] = molecular target: T4, Fatty-acid amide hydrolase 1 (Rattus norvegicus) (UniProt P97612); assay: Inhibition of FAAH in Sprague-Dawley rat brain microsomes assessed as N-(2-hydroxyethyl)-4-pyren-1-ylbutanamide conversion to 4-pyren-1-ylbutanoic acid at 10 uM preincubated for 10 mins measured after 45 mins by HPLC analysis relative to control
T4 sequence (whole entry): T1 sequence (P97612 whole entry)

[7] = molecular target: T5, Monoglyceride lipase (Homo sapiens) (UniProt Q99685); assay: Inhibition of human recombinant MAGL-mediated 1,3-dihydroxypropan-1-yl 4-pyren-1-ylbutanoate conversion to 4-pyren-1-ylbutanoic acid at 10 uM preincubated for 15 mins measured after 45 mins by HPLC analysis relative to control
T5 sequence (whole entry): T2 sequence (Q99685 whole entry)

Sus scrofa = species: Sus scrofa; assay: Inhibition of cytosolic phospholipase A2alpha in porcine platelets assessed as 1-stearoyl-2-arachidonoyl-sn-glycero-3-phosphocholine conversion to arachidonic acid at 10 uM by HPLC analysis
Monoglyceride lipase [8] = molecular target: T6, Monoglyceride lipase (Rattus norvegicus, UniProt Q8R431); assay: Inhibition of rat MAGL expressed in monkey COS7 cells; assay type: cell-based, COS-7
T6 sequence (Q8R431 whole entry): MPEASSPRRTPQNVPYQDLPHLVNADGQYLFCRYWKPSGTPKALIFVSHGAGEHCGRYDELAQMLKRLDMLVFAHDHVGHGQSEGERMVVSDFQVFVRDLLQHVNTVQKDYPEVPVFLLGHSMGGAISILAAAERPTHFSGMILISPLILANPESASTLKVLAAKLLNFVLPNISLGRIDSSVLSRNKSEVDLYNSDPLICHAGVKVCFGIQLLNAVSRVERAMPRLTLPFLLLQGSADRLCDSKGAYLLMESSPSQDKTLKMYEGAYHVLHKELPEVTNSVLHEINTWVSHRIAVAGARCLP

Monoglyceride lipase [9] = molecular target: T6, Monoglyceride lipase; assay: Inhibition of MAGL in rat cerebellar membranes; assay type: cell membranes, Membrane
Monoglyceride lipase [10] = molecular target: T2, Monoglyceride lipase; assay: Inhibition of human MAGL expressed in Escherichia coli using 6-methoxy-4-methylcoumarin ester as substrate after 3 hrs by mass spectroscopic analysis
[11] = Metabolic stability in Wistar rat liver S9 fraction at 20 uM after 30 mins by HPLC analysis; assay type: ADME, subcellular; settings: read-out: Stability
[12] = Selectivity ratio of IC50 for human recombinant MAGL to IC50 for FAAH in Sprague-Dawley rat brain microsomes; settings: Microsome

Which results are given for `COc1nn(-c2ccc(NC(=O)OCc3ccccc3)c(C)c2)c(=O)o1`?
IC50 [1]: 1300 nM; IC50 (Monoglyceride lipase [2]): 92 nM; IC50 [3]: 76 nM; IC50 (Monoglyceride lipase [4]): 400 nM; IC50 (Monoglyceride lipase [5]): 480 nM

Which IC50 [1] does the source give for `CN(C)C(=O)n1nnc(-c2ccc(Oc3ccc(F)cc3)cc2)n1` here?
Its IC50 is 14 nM.

With `CN(C)C(=O)n1nnc(-c2ccc(Cn3cccc3)cc2)n1` as the compound, how does the IC50 [1] read?
Its IC50 is 11 nM.

With `COc1cccc(Oc2ccc(-c3nnn(C(=O)N(C)C)n3)cc2)c1` as the compound, how does the IC50 [1] read?
Its IC50 is 15 nM.

With `CN(C)C(=O)n1nnc(-c2ccc(-n3cccn3)cc2)n1` as the compound, how does the IC50 [1] read?
Its IC50 is 8 nM.

With `Cc1cc(C(=O)C(C)(C)C)c(C)n1-c1ccc(-c2nnn(C(=O)N(C)C)n2)cc1` as the compound, how does the IC50 [1] read?
The IC50 was 29 nM.

With `O=C1NCC(c2ccc(Oc3ccccc3)cc2)O1` (configuration not stated) as the compound, how does the inhibition [6] read?
Its inhibition is “inactive”.

And the inhibition [7]?
The inhibition was “inactive”.

Which IC50 [1] does the source give for `CN(C)C(=O)n1nnc(-c2ccc(Oc3ccc(Cl)c(Cl)c3)cc2)n1` here?
Its IC50 is 11 nM.

Which IC50 [1] does the source give for `Cc1cc(C(=O)c2ccccc2)c(C)n1-c1ccc(-c2nnn(C(=O)N(C)C)n2)cc1` here?
Its IC50 is 16 nM.

What does the source list for `CN(C)C(=O)n1nnnc1-c1ccc(Oc2ccccc2)cc1`?
IC50 [1]: 7 nM; inhibition (Sus scrofa): inactive

Which IC50 [1] does the source give for `COc1nn(-c2ccc(Oc3ccccc3)cc2)c(=O)o1` here?
Its IC50 is 720 nM.

And the IC50 (Monoglyceride lipase [2])?
Its IC50 is 78 nM.

And the IC50 [3]?
Its IC50 is 65 nM.

And the IC50 (Monoglyceride lipase [5])?
The IC50 was 310 nM.

With `COc1ccc(Oc2ccc(-c3nnn(C(=O)N(C)C)n3)cc2)cc1` as the compound, how does the IC50 [1] read?
The IC50 was 13 nM.

For `CN(C)C(=O)n1nnc(-c2ccc(-n3ccc4ccccc43)cc2)n1`, which IC50 [1] is on record?
The IC50 was 12 nM.

With `CN(C)C(=O)n1nnc(-c2ccc(Oc3cccc(Cl)c3)cc2)n1` as the compound, how does the IC50 [1] read?
Its IC50 is 9 nM.

With `O=c1[nH]c(-c2ccc(Oc3ccccc3)cc2)no1` as the compound, how does the inhibition [6] read?
Its inhibition is “inactive”.

And the inhibition [7]?
Its inhibition is “inactive”.

Which results are given for `O=C(Oc1ccc([N+](=O)[O-])cc1)N1CCC(C(O)(c2ccc3c(c2)OCO3)c2ccc3c(c2)OCO3)CC1`?
IC50 (Monoglyceride lipase [8]): 25 nM; inhibition [6]: inactive

For `CN(C)C(=O)n1nnc(-c2ccc(Cn3ccc4ccccc43)cc2)n1`, which IC50 [1] is on record?
Its IC50 is 88 nM.

With `O=C(CCCCCc1ccccc1)c1nc2ncccc2o1` as the compound, how does the IC50 [1] read?
The IC50 was 4 nM.

And the inhibition [7]?
Its inhibition is “inactive”.

For `Cc1cc(C(=O)c2ccc(-c3ccccc3)cc2)c(C)n1-c1ccc(-c2nnn(C(=O)N(C)C)n2)cc1`, which IC50 [1] is on record?
Its IC50 is 40 nM.

Which results are given for `CN(C)C(=O)n1nnc(Cc2ccc(Oc3ccccc3)cc2)n1`?
IC50 [1]: 9 nM; inhibition (Sus scrofa): inactive

Which IC50 [1] does the source give for `CN(C)C(=O)n1nnc(-c2ccc(Oc3cccc(F)c3)cc2)n1` here?
The IC50 was 10 nM.

For `CN(C)C(=O)n1nnc(Cc2ccc(-c3ccccc3)cc2)n1`, which IC50 [1] is on record?
The IC50 was 12 nM.

And the inhibition (Sus scrofa)?
The inhibition was “inactive”.

What about the IC50 (Monoglyceride lipase [5]) of the same compound?
Its IC50 is 6 nM.

With `CCCCCC(=O)c1cc(C)n(-c2ccc(-c3nnn(C(=O)N(C)C)n3)cc2)c1C` as the compound, how does the IC50 [1] read?
Its IC50 is 11 nM.

Which IC50 [1] does the source give for `Cc1ccc(C)n1-c1ccc(-c2nnn(C(=O)N(C)C)n2)cc1` here?
Its IC50 is 9 nM.

With `Cc1ccc(C)n1Cc1ccc(-c2nnn(C(=O)N(C)C)n2)cc1` as the compound, how does the IC50 [1] read?
The IC50 was 140 nM.

For `CCCCC/C=C\C/C=C\C/C=C\C/C=C\CCCCN1C(=O)C=CC1=O`, which IC50 (Monoglyceride lipase [9]) is on record?
The IC50 was 140 nM.

And the inhibition [6]?
Its inhibition is 38%.

And the inhibition [7]?
Its inhibition is “inactive”.

And the IC50 (Monoglyceride lipase [10])?
Its IC50 is 2800 nM.

For `O=C1C=CC(=O)N1Cc1ccc(Oc2ccccc2)cc1`, which IC50 [1] is on record?
The IC50 was 4900 nM.

And the inhibition [7]?
Its inhibition is 44%.

What about the IC50 (Monoglyceride lipase [5]) of the same compound?
The IC50 was > 10000 nM.

For `CC(=O)c1cc(C)n(-c2ccc(-c3nnn(C(=O)N(C)C)n3)cc2)c1C`, which IC50 [1] is on record?
The IC50 was 9 nM.

Which IC50 [1] does the source give for `CCN(CC)C(=O)n1nnc(-c2ccc(Oc3ccccc3)cc2)n1` here?
Its IC50 is 37 nM.

What about the remaining at 0.5 h, 20 µM [11] of the same compound?
The remaining at 0.5 h, 20 µM was 0%.

Which results are given for `O=C(NC1CCCCC1)N1CC(c2ccc(Oc3ccccc3)cc2)OC1=O` (configuration not stated)?
inhibition [6]: inactive; inhibition [7]: inactive

With `CN(C)C(=O)n1nnc(-c2ccc(Oc3ccc(Cl)cc3)cc2)n1` as the compound, how does the IC50 [1] read?
The IC50 was 16 nM.

For `CN(C)C(=O)n1nnc(-c2ccc(-n3cccc3)cc2)n1`, which IC50 [1] is on record?
The IC50 was 5 nM.

What does the source list for `CC(C)N(C(=O)n1nnc(-c2ccc(Oc3ccccc3)cc2)n1)C(C)C`?
IC50 [1]: > 10000 nM; remaining at 0.5 h, 20 µM [11]: 27%; inhibition [6]: 17%; inhibition [7]: inactive

Which IC50 [1] does the source give for `Cc1ccc(Oc2ccc(-c3nnn(C(=O)N(C)C)n3)cc2)cc1` here?
The IC50 was 24 nM.

For `O=C1N=C(O)S/C1=C\c1ccc(Oc2ccccc2)cc1`, which inhibition [6] is on record?
The inhibition was “inactive”.

And the inhibition [7]?
Its inhibition is “inactive”.

With `CN(C)C(=O)n1nnnc1Cc1ccc(-c2ccccc2)cc1` as the compound, how does the Ratio IC50 [12] read?
The Ratio IC50 was 60.

And the IC50 [1]?
The IC50 was 5 nM.

What about the inhibition (Sus scrofa) of the same compound?
Its inhibition is “inactive”.

And the IC50 (Monoglyceride lipase [5])?
Its IC50 is 290 nM.

For `O=C1C=CC(=O)N1c1ccc(Oc2ccccc2)cc1`, which IC50 [1] is on record?
Its IC50 is 5300 nM.

Which results are given for `CN(C)C(=O)n1nnnc1Cc1ccc(Oc2ccccc2)cc1`?
IC50 [1]: 6 nM; inhibition (Sus scrofa): inactive

Which IC50 [1] does the source give for `Cc1cccc(Oc2ccc(-c3nnn(C(=O)N(C)C)n3)cc2)c1` here?
Its IC50 is 13 nM.

For `CN(C)C(=O)n1nnc(-c2ccc(Oc3ccccc3)cc2)n1`, which IC50 [1] is on record?
Its IC50 is 12 nM.

And the remaining at 0.5 h, 20 µM [11]?
Its remaining at 0.5 h, 20 µM is 0%.

And the inhibition (Sus scrofa)?
Its inhibition is “inactive”.
